Values joined by “and” are separate entries in the source; they are usually repeats but may differ in a detail not shown here. Equal entries are not always repeated. Results filed as inconclusive are left out. Starred links: 1 amine or outer side, 2 acyl side, 3 side chain; linkers in the order of their positions; H or OH if unused. Positions of bridges follow the written chain, without caps; N, C: chain ends. Non-standard residues stand in square brackets, D forms with d. Residues, ends and D or L forms follow the SMILES beside them. Chains are numbered I, II in the order given. Actinocin(9to1) = Cc1c2oc3c(C)ccc(C(=O)[*:1])c3nc-2c(C(=O)[*:2])c(N)c1=O; aThr = C[C@H](O)[C@H](N)C(=O)O; NMeV = CN[C@H](C(=O)O)C(C)C; Sar = CNCC(=O)O

The experiment concerns CD8F1 mice, subcutaneous mammary adenocarcinoma, T/C%. In words: NCI In Vivo Anticancer Drug Screen. Data for tumor model Mammary Adenocarcinoma CD8F1 (subcutaneous) in CD8F1. The note with it: higher = larger tumour. Here is the method:
The antitumor activity of compounds was measured in mice bearing transplantable tumors. Survival or tumor size were measured and the results are expressed as the measurement made in the treated group (T) divided by the measurement made in the vehicle treated control group (C). The tumor model used in this assay is Mammary Adenocarcinoma CD8F1 (subcutaneous) in CD8F1

Setting [1] is: endpoint: median tumor weight (est.), dose: 10.0 mg/kg/injection, schedule: Q07DX005 (ip), vehicle: Klucel (hydroxypropylcellulose) (HPC).
Where [2] appears, read: endpoint: median tumor weight (est.), dose: 20.0 mg/kg/injection, schedule: Q07DX005 (ip), vehicle: Klucel (hydroxypropylcellulose) (HPC).
The mark [3] stands for this setting: endpoint: median tumor weight (est.), dose: 40.0 mg/kg/injection, schedule: Q07DX005 (ip), vehicle: Klucel (hydroxypropylcellulose) (HPC).
[4] abbreviates: endpoint: median tumor weight change, dose: 250.0 mg/kg/injection, schedule: Q01DX001 (ip), vehicle: saline with Tween-80.

With `Cc1c2oc3c(C)ccc(C(=O)N[C@@H]4C(=O)N[C@H](C(C)C)C(=O)N5CCC[C@H]5C(=O)N(C)CC(=O)N(C)[C@@H](C(C)C)C(=O)O[C@H]4C)c3nc-2c(C(=O)N[C@@H]2C(=O)N[C@H](C(C)C)C(=O)N3CCC[C@H]3C(=O)N(C)CC(=O)N(C)[C@@H](C(C)C)C(=O)O[C@H]2C)c(N)c1=O` (I: [aThr][dV]P[Sar][NMeV] / II: [aThr][dV]P[Sar][NMeV]; ester I:1-I:C, II:1-II:C; linker I:N-II:N via Actinocin(9to1)), the T/C reads like this: (endpoint: mean tumor weight, dose: 0.02 mg/kg/injection, schedule: Q01DX009 (ip), vehicle: saline) 98 % of control; (endpoint: mean tumor weight, dose: 0.03 mg/kg/injection, schedule: Q01DX009 (ip), vehicle: saline + alcohol) 73 % of control; (endpoint: mean tumor weight, dose: 0.04 mg/kg/injection, schedule: Q01DX009 (ip), vehicle: saline + alcohol) 65 % of control; (endpoint: mean tumor weight, dose: 0.04 mg/kg/injection, schedule: Q01DX009 (ip), vehicle: saline) 28 % of control; (endpoint: mean tumor weight, dose: 0.1 mg/kg/injection, schedule: Q07DX007 (ip), vehicle: saline) 36 % of control; (endpoint: mean tumor weight, dose: 0.2 mg/kg/injection, schedule: Q07DX007 (ip), vehicle: saline) 5 % of control. For the same molecule, the T/C reads like this: (endpoint: median tumor weight (est.), dose: 0.03 mg/kg/injection, schedule: Q07DX005 (ip), vehicle: saline) 56 % of control; (endpoint: median tumor weight (est.), dose: 0.15 mg/kg/injection, schedule: Q07DX005 (ip), vehicle: saline) 34 % of control and 49 % of control; (endpoint: median tumor weight (est.), dose: 0.3 mg/kg/injection, schedule: Q07DX005 (ip), vehicle: saline) 24 % of control; (endpoint: median tumor weight (est.), dose: 12.5 micrograms/kg/injection, schedule: Q07DX005 (ip), vehicle: saline) 66 % of control; (endpoint: median tumor weight (est.), dose: 25.0 micrograms/kg/injection, schedule: Q07DX005 (ip), vehicle: saline) 60 % of control; (endpoint: median tumor weight (est.), dose: 50.0 micrograms/kg/injection, schedule: Q07DX005 (ip), vehicle: saline) 70 % of control. For the same molecule, the T/C reads like this: (endpoint: median tumor weight (est.), dose: 100.0 micrograms/kg/injection, schedule: Q07DX005 (ip), vehicle: saline) 38 % of control; (endpoint: median tumor weight (est.), dose: 200.0 micrograms/kg/injection, schedule: Q07DX005 (ip), vehicle: saline) 9 % of control; (endpoint: median tumor weight change, dose: 0.12 mg/kg/injection, schedule: Q01DX001 (ip), vehicle: saline) 55 % of control; (endpoint: median tumor weight change, dose: 0.25 mg/kg/injection, schedule: Q01DX001 (ip), vehicle: saline) 30 % of control and 39 % of control; (endpoint: median tumor weight change, dose: 0.5 mg/kg/injection, schedule: Q01DX001 (ip), vehicle: saline) 7 % of control and 27 % of control.

On to `COc1c(C=O)c2c(c(OC)c1OC)-c1ccc(OC)c(=O)cc1[C@@H](NC(C)=O)CC2`, for which the T/C by setting is: (endpoint: median tumor weight change, dose: 8.0 mg/kg/injection, schedule: Q01DX001 (ip), vehicle: Klucel (hydroxypropylcellulose) (HPC)) 76 % of control; (endpoint: median tumor weight change, dose: 15.62 mg/kg/injection, schedule: Q01DX001 (ip), vehicle: Klucel (hydroxypropylcellulose) (HPC)) 93 % of control; (endpoint: median tumor weight change, dose: 16.0 mg/kg/injection, schedule: Q01DX001 (ip), vehicle: Klucel (hydroxypropylcellulose) (HPC)) 88 % of control; (endpoint: median tumor weight change, dose: 31.0 mg/kg/injection, schedule: Q01DX001 (ip), vehicle: Klucel (hydroxypropylcellulose) (HPC)) 54 % of control; (endpoint: median tumor weight change, dose: 31.25 mg/kg/injection, schedule: Q01DX001 (ip), vehicle: Klucel (hydroxypropylcellulose) (HPC)) 69 % of control; (endpoint: median tumor weight change, dose: 62.0 mg/kg/injection, schedule: Q01DX001 (ip), vehicle: Klucel (hydroxypropylcellulose) (HPC)) 17 % of control. The T/C (endpoint: median tumor weight change, dose: 62.5 mg/kg/injection, schedule: Q01DX001 (ip), vehicle: Klucel (hydroxypropylcellulose) (HPC)) is 7 % of control.

As for `c1ccc2c(NCCCCCCCCNc3c4ccccc4nc4ccccc34)c3ccccc3nc2c1`, the T/C is 72 % of control (endpoint: median tumor weight (est.), dose: 5.0 mg/kg/injection, schedule: Q07DX005 (ip), vehicle: Klucel (hydroxypropylcellulose) (HPC)); 56 % of control under setting [1]; 57 % of control under setting [2]; 46 % of control under setting [3].

Regarding `COc1cc(C(C)(C)C)cc(OC)c1C(O)(c1c(OC)cc(C(C)(C)C)cc1OC)c1c(OC)cc(C(C)(C)C)cc1OC`, the T/C by setting is: (endpoint: median tumor weight change, dose: 62.5 mg/kg/injection, schedule: Q01DX001 (ip), vehicle: saline with Tween-80) 102 % of control; (endpoint: median tumor weight change, dose: 125.0 mg/kg/injection, schedule: Q01DX001 (ip), vehicle: Klucel (hydroxypropylcellulose) (HPC)) 98 % of control; (endpoint: median tumor weight change, dose: 250.0 mg/kg/injection, schedule: Q01DX001 (ip), vehicle: Klucel (hydroxypropylcellulose) (HPC)) 62 % of control; under setting [4], 48 % of control and 70 % of control; (endpoint: median tumor weight change, dose: 500.0 mg/kg/injection, schedule: Q01DX001 (ip), vehicle: Klucel (hydroxypropylcellulose) (HPC)) 67 % of control; (endpoint: median tumor weight change, dose: 500.0 mg/kg/injection, schedule: Q01DX001 (ip), vehicle: saline with Tween-80) 37 % of control and 46 % of control. The T/C (endpoint: median tumor weight change, dose: 1000.0 mg/kg/injection, schedule: Q01DX001 (ip), vehicle: saline with Tween-80) was 17 % of control.

As to `CONc1ccn(C2OC(CO)C(O)C2O)c(=O)n1` (stereo not given), the T/C was 87 % of control (endpoint: median tumor weight change, dose: 125.0 mg/kg/injection, schedule: Q01DX001 (ip), vehicle: saline) and 103 % of control (endpoint: median tumor weight change, dose: 250.0 mg/kg/injection, schedule: Q01DX001 (ip), vehicle: saline).

Regarding `CN(N=O)C(=O)N[C@@H](C=O)[C@@H](O)[C@H](O)[C@H](O)CO`, the T/C was 90 % of control (endpoint: median tumor weight (est.), dose: 16.0 mg/kg/injection, schedule: Q07DX005 (ip), vehicle: Klucel (hydroxypropylcellulose) (HPC)); 101 % of control and 109 % of control (endpoint: median tumor weight (est.), dose: 16.0 mg/kg/injection, schedule: Q07DX005 (ip), vehicle: other); 98 % of control (endpoint: median tumor weight (est.), dose: 32.0 mg/kg/injection, schedule: Q07DX005 (ip), vehicle: Klucel (hydroxypropylcellulose) (HPC)); 98 % of control (endpoint: median tumor weight (est.), dose: 50.0 mg/kg/injection, schedule: Q07DX005 (ip), vehicle: citric acid); 95 % of control (endpoint: median tumor weight (est.), dose: 64.0 mg/kg/injection, schedule: Q07DX005 (ip), vehicle: Klucel (hydroxypropylcellulose) (HPC)); 115 % of control (endpoint: median tumor weight (est.), dose: 64.0 mg/kg/injection, schedule: Q07DX005 (ip), vehicle: other). The T/C by setting is: (endpoint: median tumor weight (est.), dose: 100.0 mg/kg/injection, schedule: Q07DX005 (ip), vehicle: citric acid) 76 % of control; (endpoint: median tumor weight (est.), dose: 128.0 mg/kg/injection, schedule: Q07DX005 (ip), vehicle: other) 87 % of control; (endpoint: median tumor weight (est.), dose: 200.0 mg/kg/injection, schedule: Q07DX005 (ip), vehicle: citric acid) 84 % of control; (endpoint: median tumor weight (est.), dose: 256.0 mg/kg/injection, schedule: Q07DX005 (ip), vehicle: other) 39 % of control; (endpoint: median tumor weight (est.), dose: 400.0 mg/kg/injection, schedule: Q07DX005 (ip), vehicle: citric acid) 48 % of control.

Take `O=C(CCBr)N1CCN(C(=O)CCBr)CC1`: the T/C by setting is: under setting [1], 94 % of control; under setting [2], 53 % of control; under setting [3], 67 % of control; (endpoint: median tumor weight (est.), dose: 80.0 mg/kg/injection, schedule: Q07DX005 (ip), vehicle: Klucel (hydroxypropylcellulose) (HPC)) 42 % of control; (endpoint: median tumor weight (est.), dose: 160.0 mg/kg/injection, schedule: Q07DX005 (ip), vehicle: Klucel (hydroxypropylcellulose) (HPC)) 19 % of control; (endpoint: median tumor weight (est.), dose: 320.0 mg/kg/injection, schedule: Q07DX005 (ip), vehicle: Klucel (hydroxypropylcellulose) (HPC)) 6 % of control.

As to `CCCCCC1c2cc(O)ccc2OC1N1CCOCC1` (stereo not given), the T/C under setting [4] was 204 % of control and 73 % of control.

For `O=CC(=O)c1ccc(O)cc1`, the T/C is 102 % of control (endpoint: median tumor weight (est.), dose: 12.5 mg/kg/injection, schedule: Q07DX005 (ip), vehicle: suspension in saline); 111 % of control (endpoint: median tumor weight (est.), dose: 25.0 mg/kg/injection, schedule: Q07DX005 (ip), vehicle: suspension in saline); 123 % of control (endpoint: median tumor weight (est.), dose: 50.0 mg/kg/injection, schedule: Q07DX005 (ip), vehicle: suspension in saline); 114 % of control (endpoint: median tumor weight (est.), dose: 100.0 mg/kg/injection, schedule: Q07DX005 (ip), vehicle: suspension in saline).

As for `C/C=C/c1cc2n(c1)C(=O)c1cc(OC3OC(C)C(NC)C(C)(O)C3O)c(C)c(O)c1NC2O` (stereo not given), the T/C (endpoint: median tumor weight (est.), dose: 1.0 micrograms/kg/injection, schedule: Q07DX005 (ip), vehicle: saline) is 60 % of control.

Regarding `COc1cccc(C2NC(=O)c3c(n[nH]c3N)S2)c1O` (stereo not given), the T/C was 71 % of control (endpoint: median tumor weight change, dose: 112.5 mg/kg/injection, schedule: Q01DX001 (ip), vehicle: saline with Tween-80); 91 % of control (endpoint: median tumor weight change, dose: 225.0 mg/kg/injection, schedule: Q01DX001 (ip), vehicle: saline with Tween-80); 92 % of control (endpoint: median tumor weight change, dose: 450.0 mg/kg/injection, schedule: Q01DX001 (ip), vehicle: saline with Tween-80); 76 % of control (endpoint: median tumor weight change, dose: 900.0 mg/kg/injection, schedule: Q01DX001 (ip), vehicle: saline with Tween-80); 79 % of control (endpoint: median tumor weight change, dose: 1800.0 mg/kg/injection, schedule: Q01DX001 (ip), vehicle: saline with Tween-80).
